Measurements as given in article PMC3402541, “Guanidylation and Tail Effects in Cationic Antimicrobial Lipopeptoids” (PLoS ONE, 2012).
Values after ≈ are worked out from the molar mass of the structure shown. Where a SMILES comes first, the peptide text is derived from it. [ ]: non-standard residue; d: D form. The star is where a group is joined. Undecanoyl = CCCCCCCCCCC(=O)*; Nlys = NCCCCNCC(=O)O

Legend:
[1] = test system: E.coli CAN-ICU 61714; type: cell-based, Escherichia coli; details: CAN-ICU 61714, 24 h
Protocol: (§1) Antimicrobial activity of the purified lipopeptoids was determined without replication against a panel of clinically relevant and standard reference bacterial strains according to CLSI macrobroth standards. Stock solutions at 512 µg/mL were prepared in water, with DMSO as needed, and testing was performed in glass test tubes using Muller-Hinton broth and bacteria adjusted to 5 × 10^5 CFU/mL. Bacteria were incubated with the lipopeptoid of interest for 24 hr at 37°C prior to reading.
(§2) The bacteria Staphylococcus aureus ATCC 29213, methicillin-resistant S. aureus ATCC 33592, Staphylococcus epidermidis ATCC 14990, Enterococcus faecalis ATCC 29212, E. faecium ATCC 27270, Streptococcus pneumoniae ATCC 49619, Escherichia coli ATCC 25922, Pseudomonas aeruginosa ATCC 27853, and Klebsiella pneumoniae ATCC 13883 were acquired from the American Type Culture Collection (ATCC) and used as quality controls. The clinical strains methicillin-resistant S. epidermidis (MRSE) CAN-ICU 61589, E. coli CAN-ICU 61714, E. coli CAN-ICU 63074, P. aeruginosa CAN-ICU 62308, Stenotrophomonas maltophilia CAN-ICU 62584, Acinetobacter baumannii CAN-ICU 63169 were obtained from hospitals across Canada as part of the CAN-ICU studies, while methicillin-susceptible S. epidermidis (MSSE) 81388 was obtained from the 2008 CANWARD study.
(§3) After subculturing the relevant bacteria twice from frozen stock, in vitro activities of the antimicrobials were determined by macrobroth dilution methodology in accordance with the Clinical and Laboratory Standards Institute (CLSI) guidelines (3). The MICs were determined using glass test tubes (2 mL/tube) containing doubling antimicrobial dilutions of cation adjusted Mueller-Hinton broth inoculated to achieve a final concentration of approximately 5 x 10^5 CFU/mL, incubated in ambient air for 24 hr prior to reading. Colony counts were performed periodically to confirm inocula. The ATCC organisms […] ATCC 49619, Staphylococcus aureus ATCC 29213, Enterococcus faecalis ATCC 29212, Escherichia coli ATCC 25922, and Pseudomonas aeruginosa ATCC 27853 were used as quality control and to allow easy comparison to previously tested antimicrobials. Each test in this series was performed without replication. In our experience with cationic amphiphiles the results are accurate to within a single doubling.

[2] = test system: E.coli CAN-ICU 63074; type: cell-based, Escherichia coli; details: CAN-ICU 63074, 24 h
Protocol: as §1, §2, §3

[3] = test system: E.coli ATCC 25922; type: cell-based, Escherichia coli; details: ATCC 25922, 24 h
Protocol: as §1, §2, §3

[4] = test system: S.pneumoniae ATCC 49619; type: cell-based, Streptococcus pneumoniae; details: ATCC 49619, 24 h
Protocol: as §1, §2, §3

[5] = test system: P.aeruginosa ATCC 27853; type: cell-based, Pseudomonas aeruginosa; details: ATCC 27853, 24 h
Protocol: as §1, §2, §3

[6] = test system: P.aeruginosa CAN-ICU 62308; type: cell-based, Pseudomonas aeruginosa; details: CAN-ICU 62308, 24 h
Protocol: as §1, §2, §3

[7] = test system: MRSA ATCC 33592; type: cell-based, methicillin-resistant S. aureus; details: ATCC 33592, 24 h
Protocol: as §1, §2, §3

[8] = test system: MRSE CAN-ICU 61589; type: cell-based, methicillin-resistant S. epidermidis; details: CAN-ICU 61589, 24 h
Protocol: as §1, §2, §3

[9] = test system: E. faecalis ATCC 29212; type: cell-based, Enterococcus faecalis; details: ATCC 29212, 24 h
Protocol: as §1, §2, §3

[10] = test system: E. faecium ATCC 27270; type: cell-based; details: ATCC 27270, 24 h
Protocol: as §1, §2, §3

[11] = test system: ovine erythrocytes; assay: Haemolytic assay; type: cell-based, sheep; details: ovine erythrocytes in Tris buffered saline, 30 minutes, absorbance of supernatant at 540 nm
Protocol: Mammalian cell toxicity was determined by measuring lysis of ovine erythrocytes, a standard model for human cell toxicity. Cells were prewashed with Tris buffered saline and then incubated with a variety of lipopeptoid concentrations for 30 minutes. Following centrifugation, lysis was evaluated by testing the absorbance of the solution at 540 nm, with 0.5% NH4OH used as a positive control.
Toxicity to mammalian cells was determined using a sheep red blood cell (erythrocyte) haemolytic assay (4). Erythrocytes were washed and resuspended in Tris buffered saline prior to use, at a concentration of 1.46 - 4.5 x 10^9 cells/mL (on average 3.08 x 10^9 cells/mL). The cell suspension was diluted with varying concentrations of antimicrobials, from 50 μg/mL to 1 mg/mL and incubated for thirty minutes (final erythrocyte concentration 4.08 x 10^8 cells/mL). The samples were centrifuged following treatment and the absorbance of the supernatant was measured at 540 nm. A solution of 0.5% […] was used as a positive control, with normal buffered solution as the negative control. The toxicity was assessed as a function of percent haemolysis.

[12] = test system: A. baumannii CAN-ICU 63169; type: cell-based, Acinetobacter baumannii; details: CAN-ICU 63169, 24 h
Protocol: as §1, §2, §3

[13] = test system: S.aureus ATCC 29213; type: cell-based, Staphylococcus aureus; details: ATCC 29213, 24 h
Protocol: as §1, §2, §3

[14] = test system: S. maltophilia CAN-ICU 62584; type: cell-based, Stenotrophomonas maltophilia; details: CAN-ICU 62584, 24 h
Protocol: as §1, §2, §3

[15] = test system: MSSE 81388 CANWARD 2008; type: cell-based, methicillin-susceptible S. epidermidis; details: 24 h
Protocol: as §1, §2, §3

[16] = test system: K.pneumoniae ATCC 13883; type: cell-based, Klebsiella pneumoniae; details: ATCC 13883, 24 h
Protocol: as §1, §2, §3

[17] = test system: panel of clinically relevant and laboratory reference bacteria; assay: Antimicrobial activity over the whole bacterial panel; type: cell-based; details: Gram positive and Gram negative strains, no BSA
Protocol: as §1, with “reading. […]” for “reading.”
After subculturing the relevant bacteria twice from frozen stock, in vitro activities of the antimicrobials were determined by macrobroth dilution methodology in accordance with the Clinical and Laboratory Standards Institute (CLSI) guidelines (3). The MICs were determined using glass test tubes (2 mL/tube) containing doubling antimicrobial dilutions of cation adjusted Mueller-Hinton broth inoculated to achieve a final concentration of approximately 5 x 10^5 CFU/mL, incubated in ambient air for 24 hr prior to reading. […]

Row | SMILES | MIC E.coli [1] | MIC E.coli in the presence of 4% bovine serum albumin [1] | MIC E.coli [2] | MIC E.coli in the presence of 4% bovine serum albumin [2] | MIC E.coli [3] | MIC E.coli in the presence of 4% bovine serum albumin [3] | MIC S.pneumoniae [4] | MIC S.pneumoniae in the presence of 4% bovine serum albumin [4] | MIC P.aeruginosa [5] | MIC P.aeruginosa in the presence of 4% bovine serum albumin [5] | MIC P.aeruginosa [6] | MIC P.aeruginosa in the presence of 4% bovine serum albumin [6] | MIC MRSA [7] | MIC MRSA in the presence of 4% bovine serum albumin [7] | MIC MRSE [8] | MIC MRSE in the presence of 4% bovine serum albumin [8] | MIC E. faecalis [9] | MIC E. faecalis in the presence of 4% bovine serum albumin [9] | MIC E. faecium [10] | MIC E. faecium in the presence of 4% bovine serum albumin [10] | also measured
1 | CCCCCCCCCCC(=O)N(CCCCN)CC(=O)NCC(=O)N(CCCCN)CC(N)=O [C11-NlysGNlys] (Undecanoyl-[Nlys]-Gly-[Nlys]-NH2) | >512 µg/mL | >512 µg/mL | >512 µg/mL | >512 µg/mL | >512 µg/mL | >512 µg/mL | 512 µg/mL (≈ 1030 µM) | 512 µg/mL | >512 µg/mL | >512 µg/mL | >512 µg/mL | >512 µg/mL | 512 µg/mL (≈ 1030 µM) | >512 µg/mL | 256 µg/mL (≈ 513 µM) | 512 µg/mL | 512 µg/mL (≈ 1030 µM) | >512 µg/mL | 512 µg/mL (≈ 1030 µM) | >512 µg/mL | Percent haemolysis at 100µg/mL of compound [11]: 1.34%; MIC A. baumannii [12]: >512 µg/mL; MIC A. baumannii in the presence of 4% bovine serum albumin [12]: >512 µg/mL; MIC S.aureus [13]: 512 µg/mL (≈ 1030 µM); MIC S.aureus in the presence of 4% bovine serum albumin [13]: >512 µg/mL; MIC S. maltophilia [14]: >512 µg/mL; MIC S. maltophilia in the presence of 4% bovine serum albumin [14]: >512 µg/mL; MIC MSSE [15]: 256 µg/mL (≈ 513 µM); MIC MSSE in the presence of 4% bovine serum albumin [15]: 512 µg/mL; MIC K.pneumoniae [16]: >512 µg/mL; MIC K.pneumoniae in the presence of 4% bovine serum albumin [16]: >512 µg/mL; Antimicrobial activity over the panel (in words) [17]: broadly inactive
2 | CCCCCCCCCCC(=O)N(CCCCN)CC(=O)N(CCCCN)CC(=O)N(CCCCN)CC(N)=O [C11-NlysNlysNlys] | >512 µg/mL | >512 µg/mL | >512 µg/mL | >512 µg/mL | >512 µg/mL | >512 µg/mL | >512 µg/mL | >512 µg/mL | >512 µg/mL | >512 µg/mL | >512 µg/mL | >512 µg/mL | 512 µg/mL (≈ 899 µM) | >512 µg/mL | 512 µg/mL (≈ 899 µM) | 512 µg/mL | 512 µg/mL (≈ 899 µM) | >512 µg/mL | 256 µg/mL (≈ 449 µM) | 512 µg/mL | Percent haemolysis at 100µg/mL of compound [11]: 0.67%; MIC A. baumannii [12]: >512 µg/mL; MIC A. baumannii in the presence of 4% bovine serum albumin [12]: >512 µg/mL; MIC S.aureus [13]: 512 µg/mL (≈ 899 µM); MIC S.aureus in the presence of 4% bovine serum albumin [13]: >512 µg/mL; MIC S. maltophilia [14]: >512 µg/mL; MIC S. maltophilia in the presence of 4% bovine serum albumin [14]: >512 µg/mL; MIC MSSE [15]: 512 µg/mL (≈ 899 µM); MIC MSSE in the presence of 4% bovine serum albumin [15]: 512 µg/mL; MIC K.pneumoniae [16]: >512 µg/mL; MIC K.pneumoniae in the presence of 4% bovine serum albumin [16]: >512 µg/mL; Antimicrobial activity over the panel (in words) [17]: broadly inactive
3 | CCCCCCCCCCC(=O)N(CCCCNC(=N)N)CC(=O)NCC(=O)N(CCCCNC(=N)N)CC(N)=O [C11-NhargGNharg] | 512 µg/mL (≈ 879 µM) | >512 µg/mL | 512 µg/mL (≈ 879 µM) | >512 µg/mL | 512 µg/mL (≈ 879 µM) | 512 µg/mL | 512 µg/mL (≈ 879 µM) | >512 µg/mL | >512 µg/mL | >512 µg/mL | 512 µg/mL (≈ 879 µM) | 512 µg/mL | 128 µg/mL (≈ 220 µM) | 512 µg/mL | 128 µg/mL (≈ 220 µM) | 512 µg/mL | 256 µg/mL (≈ 439 µM) | >512 µg/mL | 256 µg/mL (≈ 439 µM) | 512 µg/mL | Percent haemolysis at 100µg/mL of compound [11]: 1.49%; MIC A. baumannii [12]: 512 µg/mL (≈ 879 µM); MIC A. baumannii in the presence of 4% bovine serum albumin [12]: >512 µg/mL; MIC S.aureus [13]: 128 µg/mL (≈ 220 µM); MIC S.aureus in the presence of 4% bovine serum albumin [13]: 512 µg/mL; MIC S. maltophilia [14]: >512 µg/mL; MIC S. maltophilia in the presence of 4% bovine serum albumin [14]: >512 µg/mL; MIC MSSE [15]: 128 µg/mL (≈ 220 µM); MIC MSSE in the presence of 4% bovine serum albumin [15]: 256 µg/mL; MIC K.pneumoniae [16]: 512 µg/mL (≈ 879 µM); MIC K.pneumoniae in the presence of 4% bovine serum albumin [16]: 512 µg/mL
4 | CCCCCCCCCCCCCCCC(=O)N(CCCCN)CC(=O)N(CCCCN)CC(=O)N(CCCCN)CC(N)=O [C16-NlysNlysNlys] | 64 µg/mL (≈ 100 µM) | >512 µg/mL | 64 µg/mL (≈ 100 µM) | >512 µg/mL | 32 µg/mL (≈ 50 µM) | >512 µg/mL | 128 µg/mL (≈ 200 µM) | 512 µg/mL | 128 µg/mL (≈ 200 µM) | >512 µg/mL | 128 µg/mL (≈ 200 µM) | >512 µg/mL | 32 µg/mL (≈ 50 µM) | >512 µg/mL | 8 µg/mL (≈ 12.5 µM) | 512 µg/mL | 32 µg/mL (≈ 50 µM) | >512 µg/mL | 32 µg/mL (≈ 50 µM) | >512 µg/mL | Percent haemolysis at 100µg/mL of compound [11]: 67.69%; MIC A. baumannii [12]: 256 µg/mL (≈ 400 µM); MIC A. baumannii in the presence of 4% bovine serum albumin [12]: >512 µg/mL; MIC S.aureus [13]: 16 µg/mL (≈ 25 µM); MIC S.aureus in the presence of 4% bovine serum albumin [13]: 512 µg/mL; MIC S. maltophilia [14]: 256 µg/mL (≈ 400 µM); MIC S. maltophilia in the presence of 4% bovine serum albumin [14]: >512 µg/mL; MIC MSSE [15]: 8 µg/mL (≈ 12.5 µM); MIC MSSE in the presence of 4% bovine serum albumin [15]: 512 µg/mL; MIC K.pneumoniae [16]: 128 µg/mL (≈ 200 µM); MIC K.pneumoniae in the presence of 4% bovine serum albumin [16]: >512 µg/mL
